Assay [1] has as its system Rattus norvegicus. In words: Antidiabetic activity in Sprague-Dawley rat assessed as decrease in glucose level at 25 nmol/kg, ip pretreated for 30 mins followed by glucose challenge and measured up to 180 mins by OGTT relative to control. It counts as functional, organism-based.
Assay [2] relates to Rattus norvegicus. The experiment in a line: Antidiabetic activity in Sprague-Dawley rat assessed as increase in insulin level at 25 nmol/kg, ip pretreated for 30 mins followed by glucose challenge and measured after 15 to 60 mins by ELISA method. Format: functional. A general note: An ELISA detects its analyte on a solid surface through an enzyme-linked reagent.
Assay [3] deals with Mus musculus. In words: Antidiabetic activity in STZ-induced diabetic Kunming mouse assessed as hypoglycemic time duration for glycemia under 8.35 mmol/L at 25 nmol/kg, ip pretreated with STZ for 5 consecutive days and measured up to 48 hrs. It counts as functional.
For assay [4], the target named is Glucagon-like peptide 1 receptor (Homo sapiens, UniProt P43220). The experiment in a line: Agonist activity at human GLP1 receptor expressed in HEK293 cells assessed as induction of cAMP levels after 20 mins by time-resolved fluorescence analysis. Format: functional, cell-based. A general note: Cyclic AMP is a second messenger, typically raised through Gs and lowered through Gi signalling.

For 3 compounds, Activity, Time and EC50 results are on record in ChEMBL document CHEMBL4396956 (Bioorg Med Chem, 2019).

Calls of active or inactive are those of the source. The calls are words filed in the database; no cut-off is given here.

Chain of Glucagon-like peptide 1 receptor (P43220 whole entry): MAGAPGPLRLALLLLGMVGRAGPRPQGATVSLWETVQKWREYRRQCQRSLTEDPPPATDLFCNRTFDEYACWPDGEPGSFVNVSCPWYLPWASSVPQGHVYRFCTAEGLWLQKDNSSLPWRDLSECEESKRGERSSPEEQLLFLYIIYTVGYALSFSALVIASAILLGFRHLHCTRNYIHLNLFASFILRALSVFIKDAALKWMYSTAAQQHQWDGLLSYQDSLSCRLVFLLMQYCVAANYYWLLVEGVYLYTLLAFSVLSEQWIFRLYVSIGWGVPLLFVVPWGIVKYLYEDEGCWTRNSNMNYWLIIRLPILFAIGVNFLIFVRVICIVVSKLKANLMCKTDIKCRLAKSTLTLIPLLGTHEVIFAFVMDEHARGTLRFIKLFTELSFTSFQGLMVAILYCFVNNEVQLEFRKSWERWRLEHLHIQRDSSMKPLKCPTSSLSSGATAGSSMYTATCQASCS

With `CCCCCCCCCCCCCCCC(=O)N[C@@H](CCC(=O)NCCCC[C@H](NC(=O)[C@H](C)NC(=O)[C@H](C)NC(=O)[C@H](CCC(N)=O)NC(=O)CNC(=O)[C@H](CCC(=O)O)NC(=O)[C@H](CC(C)C)NC(=O)[C@H](Cc1ccc(O)cc1)NC(=O)[C@H](CO)NC(=O)[C@H](CO)NC(=O)[C@@H](NC(=O)[C@H](CC(=O)O)NC(=O)[C@H](CO)NC(=O)[C@@H](NC(=O)[C@H](Cc1ccccc1)NC(=O)[C@@H](NC(=O)CNC(=O)[C@H](CCC(=O)O)NC(=O)[C@H](C)NC(=O)[C@@H](N)Cc1cnc[nH]1)[C@@H](C)O)[C@@H](C)O)C(C)C)C(=O)N[C@@H](CCC(=O)O)C(=O)N[C@@H](Cc1ccccc1)C(=O)N[C@H](C(=O)N[C@@H](C)C(=O)N[C@@H](Cc1c[nH]c2ccccc12)C(=O)N[C@@H](CC(C)C)C(=O)N[C@H](C(=O)N[C@@H](CCCNC(=N)N)C(=O)NCC(=O)N[C@@H](CCCNC(=N)N)C(=O)NCC(=O)O)C(C)C)[C@@H](C)CC)C(=O)O` [LIRAGLUTIDE], the outcome in assay [1] was Active. Moreover, in assay [2], the Activity came to 411 pmol/L. Also, the Time in assay [3] came to 13.1 h.

Consider `CC[C@H](C)[C@H](NC(=O)[C@H](Cc1ccc(O)cc1)NC(=O)[C@H](CC(C)C)NC(=O)[C@H](CCCNC(=N)N)NC(=O)[C@@H](NC(=O)[C@H](C)NC(=O)[C@H](CCC(=O)O)NC(=O)[C@H](CCC(=O)O)NC(=O)[C@H](CCC(=O)O)NC(=O)[C@H](CCSC)NC(=O)[C@H](CCC(N)=O)NC(=O)[C@H](CCCCN)NC(=O)[C@H](CO)NC(=O)[C@H](CC(C)C)NC(=O)[C@H](CC(=O)O)NC(=O)[C@H](CO)NC(=O)[C@@H](NC(=O)[C@H](Cc1ccccc1)NC(=O)[C@@H](NC(=O)CNC(=O)[C@H](CCC(=O)O)NC(=O)CNC(=O)[C@@H](N)Cc1cnc[nH]1)[C@@H](C)O)[C@@H](C)O)C(C)C)C(=O)N[C@@H](CCC(N)=O)C(=O)N[C@@H](Cc1c[nH]c2ccccc12)C(=O)N[C@@H](CC(C)C)C(=O)N[C@@H](CCCCN)C(=O)N[C@@H](CCC(=O)O)C(=O)NCC(=O)NCC(=O)N1CCC[C@H]1C(=O)N[C@@H](CO)C(=O)N[C@@H](CO)C(=O)NCC(=O)N[C@@H](CCCNC(=N)N)C(=O)N1CCC[C@H]1C(=O)N1CCC[C@H]1C(=O)N1CCC[C@H]1C(=O)N[C@@H](CO)C(=O)N[C@@H](CSC1CC(=O)N(CCCCCCCCCCCC(=O)N[C@@H](CCC(=O)O)C(=O)O)C1=O)C(N)=O` (stereo not given in full), for which the EC50 – broadly, the midpoint of the concentration-response curve – in assay [4] is 0.0202 nM.

For the compound `CC[C@H](C)[C@H](NC(=O)[C@H](Cc1ccc(O)cc1)NC(=O)[C@H](CC(C)C)NC(=O)[C@H](CCCNC(=N)N)NC(=O)[C@@H](NC(=O)[C@H](C)NC(=O)[C@H](CCC(=O)O)NC(=O)[C@H](CCC(=O)O)NC(=O)[C@H](CCC(=O)O)NC(=O)[C@H](CCSC)NC(=O)[C@H](CCC(N)=O)NC(=O)[C@H](CSC1CC(=O)N(CCCCCCCCCCCC(=O)N[C@@H](CCC(=O)O)C(=O)O)C1=O)NC(=O)[C@H](CO)NC(=O)[C@H](CC(C)C)NC(=O)[C@H](CC(=O)O)NC(=O)[C@H](CO)NC(=O)[C@@H](NC(=O)[C@H](Cc1ccccc1)NC(=O)[C@@H](NC(=O)CNC(=O)[C@H](CCC(=O)O)NC(=O)CNC(=O)[C@@H](N)Cc1cnc[nH]1)[C@@H](C)O)[C@@H](C)O)C(C)C)C(=O)N[C@@H](CCC(N)=O)C(=O)N[C@@H](Cc1c[nH]c2ccccc12)C(=O)N[C@@H](CC(C)C)C(=O)N[C@@H](CCCCN)C(=O)N[C@@H](CCC(=O)O)C(=O)NCC(=O)NCC(=O)N1CCC[C@H]1C(=O)N[C@@H](CO)C(=O)N[C@@H](CO)C(=O)NCC(=O)N[C@@H](CCCNC(=N)N)C(=O)N1CCC[C@H]1C(=O)N1CCC[C@H]1C(=O)N1CCC[C@H]1C(=O)N[C@@H](CO)C(N)=O` (stereo not given in full), in assay [4], the EC50 is 0.0182 nM.
